Experimental findings from ChEMBL document CHEMBL1138554, “Synthesis and QSAR evaluation of 2-(substituted phenyl)-1H-benzimidazoles and [2-(substituted phenyl)-benzimidazol-1-yl]-pyridin-3-yl-methanones” (Eur J Med Chem, 2009) are described below.

Structures are written as SMILES.

In one series the test system is Staphylococcus aureus. Briefly: Antimicrobial activity against Staphylococcus aureus at 37 degC after 24 hrs by tube dilution method. Format: functional. Set-up: unit not given here.
Another series relates to Bacillus subtilis. The series can be described thus: Antimicrobial activity against Bacillus subtilis at 37 degC after 24 hrs by tube dilution method. It is filed as functional. Set-up: unit not given here.
The next series concerns Escherichia coli. Briefly: Antimicrobial activity against Escherichia coli at 37 degC after 24 hrs by tube dilution method. It is filed as functional. Set-up: unit not given here.
Another series has as its system Candida albicans. The series can be described thus: Antifungal activity against Candida albicans at 37 degC after 48 hrs by tube dilution method. Format: functional. Set-up: unit not given here.
For the next series, the system named is Aspergillus niger. Briefly: Antifungal activity against Aspergillus niger at 25 degC after 7 days by tube dilution method. It is filed as functional. Set-up: unit not given here.
The nature of series [1]: Octanol-water partition coefficient, log P of the compound. It is filed as physicochemical.

As to `c1ccc(-c2nc3ccccc3[nH]2)cc1`, the “-logMIC” value was 1.46 in the series with Staphylococcus aureus; 1.68 with Bacillus subtilis; 1.72 in the series with Escherichia coli; 1.49 with Candida albicans; 1.49 in the series on Aspergillus niger. This compound gave a lipophilicity (logP) in series [1] of 3.11.
On to `O=[N+]([O-])c1cccc(-c2nc3ccccc3[nH]2)c1`, for which the “-logMIC” value came to 1.47 in the series on Staphylococcus aureus; 1.72 in the series on Bacillus subtilis; 1.41 in the series with Escherichia coli; 1.58 in the series on Candida albicans; 1.58 in the series on Aspergillus niger. In series [1], this compound registered a logP of 3.07.
Consider `O=C(c1cccnc1)n1c(-c2ccc(Cl)cc2)nc2ccccc21`, for which the “-logMIC” value in the series on Staphylococcus aureus is given as 1.73; with Bacillus subtilis it was 1.43; in the series on Escherichia coli it was 1.73; in the series on Candida albicans it was 1.73; in the series on Aspergillus niger, 1.43. Moreover, the logP in series [1] was 4.7.
Take `OC(Cn1cncn1)(Cn1cncn1)c1ccc(F)cc1F` [FLUCONAZOLE]: the “-logMIC” value was found to be 3.33 with Escherichia coli, 2.64 in the series on Candida albicans and 2.64 in the series on Aspergillus niger.
`O=C(O)c1cn(C2CC2)c2cc(N3CCNCC3)c(F)cc2c1=O` [CIPROFLOXACIN]: the “-logMIC” value with Staphylococcus aureus and with Bacillus subtilis was 3.33 in each case.
Turning to `O=C(O)c1ccccc1-c1nc2ccccc2[nH]1`, the “-logMIC” value with Staphylococcus aureus was 1.5; in the series with Bacillus subtilis, 1.7; in the series on Escherichia coli, 1.7; in the series on Candida albicans, 1.48; with Aspergillus niger, 1.28. The compound also showed a lipophilicity (logP) in series [1] of 2.81.
For the compound `O=C(c1cccnc1)n1c(-c2ccccc2Cl)nc2ccccc21`, the “-logMIC” value in the series on Staphylococcus aureus was 1.73; in the series on Bacillus subtilis, 1.43; with Escherichia coli it was 1.65; in the series on Candida albicans, 1.73; in the series with Aspergillus niger, 1.43. The compound also yielded a logP in series [1] of 4.7.
In the case of `Clc1cccc(-c2nc3ccccc3[nH]2)c1`, the “-logMIC” value in the series on Staphylococcus aureus stood at 1.49; in the series with Bacillus subtilis it was 1.49; in the series on Escherichia coli, 1.65; in the series on Candida albicans, 1.26; with Aspergillus niger, 1.36. Moreover, the logP in series [1] came to 3.63.
Consider `O=C(c1cccnc1)n1c(-c2cccc([N+](=O)[O-])c2)nc2ccccc21`, for which the “-logMIC” value in the series with Staphylococcus aureus was determined as 1.44; with Bacillus subtilis, 1.44; in the series on Escherichia coli it was 1.44; in the series with Candida albicans, 1.74; with Aspergillus niger, 1.44. Further, the logP in series [1] worked out at 4.13.
As for `O=C(c1cccnc1)n1c(-c2ccc(O)cc2)nc2ccccc21`, the “-logMIC” value in the series on Staphylococcus aureus worked out at 1.7; in the series on Bacillus subtilis, 1.57; with Escherichia coli it was 1.8; in the series on Candida albicans, 1.7; in the series with Aspergillus niger, 1.4. In series [1], this compound showed a logP of 3.89.
Consider `O=[N+]([O-])c1ccccc1-c1nc2ccccc2[nH]1`, for which the “-logMIC” value was 1.17 with Staphylococcus aureus; 1.73 with Bacillus subtilis; 1.35 with Escherichia coli; 1.58 with Candida albicans; 1.58 in the series on Aspergillus niger. The compound also returned a log partition coefficient (logP) in series [1] of 3.07.
Take `O=C(O)c1ccccc1-c1nc2ccccc2n1C(=O)c1cccnc1`: the “-logMIC” value with Staphylococcus aureus is recorded as 1.44; in the series with Bacillus subtilis it was 1.44; with Escherichia coli, 1.44; in the series on Candida albicans, 1.74; with Aspergillus niger it was 1.44. In series [1], the log partition coefficient (logP) amounted to 4.13.
As to `COc1ccccc1-c1nc2ccccc2[nH]1`, the “-logMIC” value in the series with Staphylococcus aureus is on record as 1.5; with Bacillus subtilis, 1.71; with Escherichia coli it was 1.65; in the series on Candida albicans it was 1.25; in the series on Aspergillus niger it was 1.35. Also, the logP in series [1] stood at 2.86.
As to `O=C(c1cccnc1)n1c(-c2ccc([N+](=O)[O-])cc2)nc2ccccc21`, the “-logMIC” value in the series with Staphylococcus aureus worked out at 1.44; in the series on Bacillus subtilis, 1.44; with Escherichia coli, 1.44; in the series with Candida albicans, 1.74; in the series on Aspergillus niger, 1.44. The logP in series [1] was found to be 4.13.
As for `COc1ccccc1-c1nc2ccccc2n1C(=O)c1cccnc1`, the “-logMIC” value was 1.42 in the series with Staphylococcus aureus; 1.42 with Bacillus subtilis; 1.6 with Escherichia coli; 1.72 in the series with Candida albicans; 1.42 with Aspergillus niger. The same compound came in with a logP in series [1] of 3.93.
On to `O=C(c1cccnc1)n1c(-c2ccccc2[N+](=O)[O-])nc2ccccc21`, for which the “-logMIC” value is reported as 1.5 with Staphylococcus aureus; 1.5 in the series with Bacillus subtilis; 1.5 in the series with Escherichia coli; 1.74 in the series with Candida albicans; 1.44 in the series with Aspergillus niger. Further, the logP in series [1] was 4.13.
Take `Oc1ccc(-c2nc3ccccc3[nH]2)cc1`: the “-logMIC” value in the series with Staphylococcus aureus came out at 1.53; with Bacillus subtilis it was 1.79; with Escherichia coli, 1.7; in the series with Candida albicans, 1.43; in the series on Aspergillus niger, 1.33. In series [1], this compound had a log partition coefficient (logP) of 2.83.
As to `O=[N+]([O-])c1ccc(-c2nc3ccccc3[nH]2)cc1`, the “-logMIC” value in the series on Staphylococcus aureus is listed as 1.01; in the series on Bacillus subtilis, 1.78; in the series with Escherichia coli, 1.2; in the series on Candida albicans it was 1.58; in the series with Aspergillus niger, 1.58. This compound displayed a log partition coefficient (logP) in series [1] of 3.07.
`O=C(c1cccnc1)n1c(-c2cccc(Cl)c2)nc2ccccc21`: the “-logMIC” value in the series on Staphylococcus aureus came out at 1.79; with Bacillus subtilis, 1.5; in the series on Escherichia coli, 1.8; with Candida albicans, 1.73; in the series with Aspergillus niger, 1.43. The compound also displayed a logP in series [1] of 4.7.
With `Clc1ccccc1-c1nc2ccccc2[nH]1`, the “-logMIC” value in the series on Staphylococcus aureus was determined as 1.4; in the series with Bacillus subtilis, 1.49; with Escherichia coli, 1.49; in the series on Candida albicans, 1.26; in the series with Aspergillus niger it was 1.26. Also, the logP in series [1] was 3.63.
Take `Clc1ccc(-c2nc3ccccc3[nH]2)cc1`: the “-logMIC” value in the series with Staphylococcus aureus amounted to 1.66; in the series on Bacillus subtilis it was 1.51; with Escherichia coli, 1.66; in the series with Candida albicans, 1.56; in the series with Aspergillus niger it was 1.4. In addition, the log partition coefficient (logP) in series [1] was determined as 3.63.
